According to patent US9169252B2 (BRISTOL-MYERS SQUIBB COMPANY, priority 2014, dated 2015):
Like-named read-outs stand apart in the source and are kept apart here.

What was measured:
[1] = test system: TLR2 induced IL-6 in peripheral blood mononuclear cells (PBMCs); assay: PBMC TLR2 Induced IL-6 Assay; type: cell-based, human; conditions: IL-6 by ELISA; for EC50: read-out: Cell EC50; for IC50: read-out: Cell IC50
Outline: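 Lipoteichoic acid at 10 µg/ml served as TLR2 stimulus for 5 hours, following a 30-minute compound pretreatment at 37° C. Cells were Ficoll-isolated human PBMCs, 250000 cells/well, cultured in RPMI plus 10% heat-inactivated FCS.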

IRAK4 = IRAK4 (Homo sapiens (Human), UniProt Q9NWZ3); assay: IRAK4 Inhibition Assay; type: biochemical; conditions: ATP 500 μM, read-out: IRAK4 IC50
Chain of IRAK4 (Q9NWZ3 whole entry, species assumed): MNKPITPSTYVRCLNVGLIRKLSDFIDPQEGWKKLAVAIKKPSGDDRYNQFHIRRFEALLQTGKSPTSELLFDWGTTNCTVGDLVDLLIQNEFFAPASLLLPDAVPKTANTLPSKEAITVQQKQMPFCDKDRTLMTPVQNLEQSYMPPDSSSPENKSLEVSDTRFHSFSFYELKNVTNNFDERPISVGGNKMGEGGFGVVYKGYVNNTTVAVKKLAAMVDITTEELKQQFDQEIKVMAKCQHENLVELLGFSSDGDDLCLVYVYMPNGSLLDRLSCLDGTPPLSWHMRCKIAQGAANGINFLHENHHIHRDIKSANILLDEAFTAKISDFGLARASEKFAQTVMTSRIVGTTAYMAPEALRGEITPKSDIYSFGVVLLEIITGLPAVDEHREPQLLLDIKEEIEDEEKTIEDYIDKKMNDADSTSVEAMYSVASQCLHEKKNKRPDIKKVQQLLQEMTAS
Outline: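 Mobility-shift readout: fluorescent substrate and phosphoproduct resolved electrophoretically on Caliper LabChip 3000 after EDTA quench (35 mM). Enzyme reaction of IRAK4, substrates and test compound ran 60 min at room temperature.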

[2] = Homo sapiens, PBMC, human PBMCs, lipoteichoic acid stimulated
[3] = Homo sapiens, PBMC, PBMC TLR2 Induced IL-6 Assay, lipoteichoic acid stimulation
[4] = human PBMCs, lipoteichoic acid stimulated
[5] = PBMC TLR2 Induced IL-6 Assay, lipoteichoic acid stimulation

| Compound | IC50 (IRAK4; IRAK4 0.6 nM) [µM] | IC50 [1, 2] [µM] | IC50 (IRAK4; IRAK4 Inhibition Assay) [µM] | EC50 [1, 3] [µM] | other results |
| --- | --- | --- | --- | --- | --- |
| CC1COCCN1CCNc1cc(-n2ccc3cc(C#N)cnc32)ncc1C(=O)NC[C@@H](F)C(C)(C)O (mixture of isomers) [Example 483] | 0.0108 |  |  |  | EC50 [1, 2]: 0.199 µM |
| Cn1cc(Nc2cc(-n3ccc4cc(C#N)cnc43)ncc2C(=O)NC[C@@H](F)C(C)(C)O)cn1 [Example 399] | 0.0013 | 0.024 |  |  |  |
| CC(C)Nc1cc(-n2ncc3cc(C#N)cnc32)ncc1C(=O)NCCC1CCN(C(=O)CC#N)CC1 [Example 275] |  |  | 0.008 |  | IC50 [1, 3]: 0.115 µM |
| CC(C)(O)[C@H](F)CNC(=O)c1cnc(-n2ccc3cc(C#N)cnc32)cc1Nc1cccc(C#N)c1F [Example 430] | 0.0021 |  |  |  | EC50 [1, 2]: 0.208 µM |
| CC(C)Nc1cc(-n2ccc3cc(C#N)cnc32)ncc1C(=O)N[C@H]1CC[C@H](C(C)(C)O)CC1 [Example 96, 6-(5-cyano-1H-pyrrolo[2,3-b]pyridin-1-yl)-N-((trans)-4-(2-hydroxypropan-2-yl)cyclohexyl)-4-(isopropylamino)nicotinamide] |  |  | 0.0014 | 0.038 |  |
| CC(C)(O)[C@H](F)CNC(=O)c1cnc(-n2ccc3cc(C#N)cnc32)cc1NC1COCC1(F)F (single isomer, unassigned) [Example 485] | 0.0087 |  |  |  | EC50 [1, 2]: 0.198 µM; IC50 [1, 4]: 1.08 µM |
| CCCn1cc(Nc2cc(-n3ncc4cc(C#N)cnc43)ncc2C(=O)NC[C@@H](F)C(C)(C)O)cn1 [Example 380] |  |  | 0.0029 |  | IC50 [1, 3]: 0.228 µM |
| CC(C)COC(=O)NCc1cnc2c(ccn2-c2cc(NC(C)C)c(C(=O)NC[C@@H](F)C(C)(C)O)cn2)c1 [Example 498] | 0.0057 | 0.248 |  |  |  |
| CC(C)(O)CCNC(=O)c1cnc(-n2ccc3cc(C#N)cnc32)cc1NC1CCOCC1 [Example 12, 6-(5-cyano-1H-pyrrolo[2,3-b]pyridin-1-yl)-N-(3-hydroxy-3-methylbutyl)-4-((tetrahydro-2H-pyran-4-yl)amino)nicotinamide] |  |  | 0.0017 | 0.122 |  |
| CC(C)Nc1cc(-n2ccc3cc(C#N)cnc32)ncc1C(=O)NCC(F)C1(O)COC1 (stereo not drawn) [Example 495] | 0.0018 |  |  |  | IC50 [1, 4]: 0.215 µM |
| CC(C)Nc1cc(-n2ccc3cc(C#N)cnc32)ncc1C(=O)N[C@H]1CC[C@H](O)CC1 [Example 98, 6-(5-cyano-1H-pyrrolo[2,3-b]pyridin-1-yl)-N-((trans)-4-hydroxycyclohexyl)-4-(isopropylamino)nicotinamide] |  |  | 0.0033 | 0.176 |  |
| CC(C)(O)[C@H](F)CNC(=O)c1cnc(-n2ncc3cc(C#N)cnc32)cc1NC1CCC1 [Example 145, (R)-6-(5-cyano-1H-pyrazolo[3,4-b]pyridin-1-yl)-4-(cyclobutylamino)-N-(2-fluoro-3-hydroxy-3-methylbutyl)nicotinamide] |  |  | 0.0045 | 0.061 |  |
| CC(C)(O)[C@H](F)CNC(=O)c1cnc(-n2ncc3cc(C#N)cnc32)cc1NC1CCN(c2ncc(F)cn2)CC1 [Example 540] | 0.003 | 0.158 |  |  |  |
| CC(C)(F)[C@H](F)CNC(=O)c1cnc(-n2cnc3cc(Cl)cnc32)cc1Nc1cnn(CC(F)F)c1 [Example 402] | 0.0025 | 0.412 |  |  |  |
| CC(C)(CNc1cc(-n2ncc3cc(Cl)cnc32)ncc1C(=O)NC[C@@H](F)C(C)(C)O)OC(F)F [Example 603] | 0.0067 | 0.321 |  |  |  |
| CC(C)Nc1cc(-n2ncc3cc(C#N)cnc32)ncc1C(=O)NC[C@@H](F)C(C)(C)O [Example 133, (R)-6-(5-Cyano-1H-pyrazolo[3,4-b]pyridin-1-yl)-N-(2-fluoro-3-hydroxy-3-methylbutyl)-4-(isopropylamino)nicotinamide] |  |  | 0.0026 | 0.12 |  |

| Compound | IC50 (IRAK4; IRAK4 0.6 nM) [µM] | IC50 [1, 2] [µM] | IC50 (IRAK4; IRAK4 Inhibition Assay) [µM] | EC50 [1, 3] [µM] | other results |
| --- | --- | --- | --- | --- | --- |
| CC(C)(O)[C@H](F)CNC(=O)c1cnc(-n2ncc3cc(C#N)cnc32)cc1N[C@H]1CC[C@H](NC(=O)C(F)F)CC1 [Example 633] | 0.0033 | 0.257 |  |  |  |
| 6-(5-cyano-1H-pyrrolo[2,3-b]pyridin-1-yl)-N—((S)-2-fluoro-3-hydroxy-3-methylbutyl)-4-((3-fluorotetrahydro-2H-pyran-4-yl)amino) nicotinamide [Example 108] |  |  | 0.0035 |  | EC50 [1, 5]: 0.172 µM |
| CC(C)Nc1cc(-n2ncc3cc(C#N)cnc32)ncc1C(=O)NC[C@@H](F)C(O)C(C)C (single isomer, unassigned) [Example 233] |  |  | 0.0036 |  | EC50 [1, 5]: 0.038 µM; IC50 [1, 5]: 0.176 µM |
| CC(C)Nc1cc(-n2ncc3cc(C#N)cnc32)ncc1C(=O)NC1CCN(C(=O)C2CN(S(C)(=O)=O)C2)CC1 [Example 584] | 0.01 | 0.508 |  |  | EC50 [1, 2]: 0.209 µM |
| CC(C)(O)[C@H](F)CNC(=O)c1cnc(-n2ccc3cc(C#N)cnc32)cc1NC1CCOCC1 [Example 3, (R)-6-(5-cyano-1H-pyrrolo[2,3-b]pyridin-1-yl)-N-(2-fluoro-3-hydroxy-3-methylbutyl)-4-((tetrahydro-2H-pyran-4-yl)amino)nicotinamide] |  |  | 0.001 | 0.011 | IC50 [1, 3]: 0.048 µM |
| CNC(=O)[C@H](F)CNC(=O)c1cnc(-n2ccc3cc(C#N)cnc32)cc1NC1CC1 [Example 132, (R)-6-(5-Cyano-1H-pyrrolo[2,3-b]pyridin-1-yl)-4-(cyclopropylamino)-N-(2-fluoro-3-(methylamino)-3-oxopropyl)nicotinamide] |  |  | 0.0047 | 0.092 |  |
| CCCNc1cc(-n2ncc3cc(C#N)c(N)nc32)ncc1C(=O)NC[C@@H](F)C(C)(C)O [Example 578] | 0.0026 | 0.218 |  |  |  |
| CC(C)(O)[C@H](F)CNC(=O)c1cnc(-n2ncc3cc(C#N)cnc32)cc1NCCCF [Example 595] | 0.0053 | 0.129 |  |  |  |
| CC(C)Nc1cc(-n2ncc3cc(C#N)c(N)nc32)ncc1C(=O)NC1(C#N)CC1 [Example 325] |  |  | 0.006 |  | IC50 [1, 3]: 0.227 µM |
| CCCNc1cc(-n2ccc3cc(C#N)cnc32)ncc1C(=O)NC[C@@H](F)C(C)(C)O [Example 18] |  |  | 0.0021 | 0.062 |  |
| CC(C)(O)[C@H](F)CNC(=O)c1cnc(-n2ncc3cc(C#N)cnc32)cc1N[C@H]1CC[C@H](O)CC1 [Example 159, 6-(5-cyano-1H-pyrazolo[3,4-b]pyridin-1-yl)-N—((R)-2-fluoro-3-hydroxy-3-methylbutyl)-4-(((trans)-4-hydroxycyclohexyl)amino)nicotinamide] |  |  | 0.0024 | 0.112 |  |
| CC(C)(O)[C@H](F)CNC(=O)c1cnc(-n2ncc3cc(C#N)cnc32)cc1NCCNS(C)(=O)=O [Example 586] | 0.0097 | 0.259 |  |  |  |
| CC(C)(O)CCNC(=O)c1cnc(-n2ncc3cc(C#N)cnc32)cc1NC1CCOCC1 [Example 151, 6-(5-cyano-1H-pyrazolo[3,4-b]pyridin-1-yl)-N-(3-hydroxy-3-methylbutyl)-4-((tetrahydro-2H-pyran-4-yl)amino)nicotinamide] |  |  | 0.0148 | 0.443 |  |
| CC(C)CC(=O)NCc1cnc2c(ccn2-c2cc(NC(C)C)c(C(=O)NC[C@@H](F)C(C)(C)O)cn2)c1 [Example 503] | 0.0023 | 0.099 |  |  |  |
| CCNC(=O)n1cc(Nc2cc(-n3ncc4cc(C#N)cnc43)ncc2C(=O)NC[C@@H](F)C(C)(C)O)cn1 [Example 386] |  |  | 0.0015 | 0.079 | IC50 [1, 3]: 1.08 µM |
| CCS(=O)(=O)N1CCC(NC(=O)c2cnc(-n3ncc4cc(C#N)cnc43)cc2NC(C)C)CC1 [Example 290] |  |  | 0.0059 |  | IC50 [1, 3]: 0.364 µM |
